Experimental findings from patent US20240101576A1, “HETEROCYCLIC INHIBITORS OF EGFR AND/OR HER2, FOR USE IN THE TREATMENT OF CANCER” (Scorpion Therapeutics, Inc., priority 2020, published 2024) are described below.

A word on the IC50: it is the concentration needed to halve the response being measured.

Common to all, as to format: cell-based
Assay [1] concerns the target T1, EGFR exon 20 ASV Ins V769_D770 (Ba/F3 cells) (Homo sapiens, UniProt P00533, INS769ASV).
T1 construct: expressed in transfected cells; host or cells: Ba/F3 (murine pro-B cells), retroviral transduction, puromycin selection, IL3-independent pool
Put plainly: Inhibitor activity on EGFR-dependent cell growth (CellTiter-Glo, 72 h), Ba/F3 EGFR exon 20 ASV Ins. The settings on record: read-out: BaF3 ASV IC50. An outline of the steps:
(§1)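 IC50s derive from a sigmoidal dose–response fit of CellTiter-Glo signal. The signal was normalised between […]-treated cells and cell-free medium. Ba/F3 mutant-EGFR cells, seeded at 400–800/well depending on the line, had 72 h of exposure to a 10-point, 3-fold compound series.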
(In general: Cellular ATP, detected with luciferase, serves as a proxy for viable cell number.)

Assay [2] deals with T2, EGFR exon 20 FQEA Ins A763_V764 (Ba/F3 cells) (Homo sapiens, UniProt P00533, INS763FQEA).
T2 construct: expressed in transfected cells; host or cells: Ba/F3 (murine pro-B cells), retroviral transduction, puromycin selection, IL3-independent pool
The assay is described as follows: Inhibitor activity on EGFR-dependent cell growth (CellTiter-Glo, 72 h), Ba/F3 EGFR exon 20 FQEA Ins. As to conditions: read-out: BaF3 FQEA IC50. In short, it runs like this:
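For each mutant line, growth depends on EGFR signalling in the absence of IL3. Density per well: 400 for L858R, 600 for the C797S double mutant, 800 for exon 19del and FQEA. Ten threefold dilutions were applied for 72 h. %Inhibition = 100×(DMSO − sample)/(DMSO − medium blank).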

The target in assay [3] is T3, EGFR WT (Ba/F3 cells) (Homo sapiens, UniProt P00533).
T3 construct: expressed in transfected cells; host or cells: Ba/F3 (murine pro-B cells), retroviral transduction, puromycin selection, maintained with EGF
T3 sequence (P00533 25-1210): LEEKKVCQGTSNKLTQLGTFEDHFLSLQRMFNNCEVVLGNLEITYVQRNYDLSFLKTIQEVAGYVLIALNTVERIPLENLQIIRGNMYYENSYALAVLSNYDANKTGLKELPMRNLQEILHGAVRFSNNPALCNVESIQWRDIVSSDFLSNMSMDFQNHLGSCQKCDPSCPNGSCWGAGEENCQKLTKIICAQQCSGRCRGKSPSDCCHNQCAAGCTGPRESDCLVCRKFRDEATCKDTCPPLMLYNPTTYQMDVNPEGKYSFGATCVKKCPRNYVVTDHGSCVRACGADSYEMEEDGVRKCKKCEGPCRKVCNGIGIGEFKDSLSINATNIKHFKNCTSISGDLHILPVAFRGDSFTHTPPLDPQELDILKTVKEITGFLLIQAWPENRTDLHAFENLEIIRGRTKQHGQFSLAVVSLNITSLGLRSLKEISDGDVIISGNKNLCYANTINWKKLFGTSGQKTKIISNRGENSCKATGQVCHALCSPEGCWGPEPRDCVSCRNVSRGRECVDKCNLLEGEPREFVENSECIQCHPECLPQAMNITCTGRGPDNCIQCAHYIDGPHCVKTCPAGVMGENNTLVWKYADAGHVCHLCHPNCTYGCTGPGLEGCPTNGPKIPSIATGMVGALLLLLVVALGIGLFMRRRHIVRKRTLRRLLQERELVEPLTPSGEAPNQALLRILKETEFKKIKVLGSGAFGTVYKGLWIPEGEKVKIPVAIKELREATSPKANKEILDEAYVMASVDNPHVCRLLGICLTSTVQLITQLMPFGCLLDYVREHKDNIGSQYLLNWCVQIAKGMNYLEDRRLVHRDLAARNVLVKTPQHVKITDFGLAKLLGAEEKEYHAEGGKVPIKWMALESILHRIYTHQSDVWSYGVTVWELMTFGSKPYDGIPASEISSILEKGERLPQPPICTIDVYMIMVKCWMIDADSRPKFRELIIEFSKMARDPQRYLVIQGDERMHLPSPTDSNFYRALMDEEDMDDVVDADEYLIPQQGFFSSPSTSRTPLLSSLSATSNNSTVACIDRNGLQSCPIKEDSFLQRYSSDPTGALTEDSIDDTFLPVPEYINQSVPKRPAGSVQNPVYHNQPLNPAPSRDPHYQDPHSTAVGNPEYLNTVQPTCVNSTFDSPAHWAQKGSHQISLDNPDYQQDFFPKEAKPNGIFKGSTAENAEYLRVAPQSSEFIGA
The assay is described as follows: Inhibitor activity on EGFR-dependent cell growth (CellTiter-Glo, 72 h), Ba/F3 EGFR WT. The settings on record: read-out: BaF3 WT IC50. An outline of the steps:
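This growth assay used Ba/F3 cells that depend on wild-type EGFR and are kept in EGF without IL3. Compounds were made up as 10 mM DMSO stocks and diluted 3-fold over 10 points. 120 nL went onto 600 cells/well. After 72 hours, 40 μL CellTiter-Glo was added and luminescence read on EnVision after 30 min.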

Assay [4] has as its target T4, EGFR exon 20 NPG Ins D770_N771 (Ba/F3 cells) (Homo sapiens, UniProt P00533, INS770NPG).
T4 construct: expressed in transfected cells; host or cells: Ba/F3 (murine pro-B cells), retroviral transduction, puromycin selection, IL3-independent pool
Put plainly: Inhibitor activity on EGFR-dependent cell growth (CellTiter-Glo, 72 h), Ba/F3 EGFR exon 20 NPG Ins. The settings on record: read-out: BaF3 NPG IC50. An outline of the steps:
as §1

Assay [5] deals with T5, EGFR exon 20 SVD Ins D770_N771 (Ba/F3 cells) (Homo sapiens, UniProt P00533, INS770SVD).
T5 construct: expressed in transfected cells; host or cells: Ba/F3 (murine pro-B cells), retroviral transduction, puromycin selection, IL3-independent pool
T5 sequence (P00533 with tags, fused parts or gaps INS770SVD): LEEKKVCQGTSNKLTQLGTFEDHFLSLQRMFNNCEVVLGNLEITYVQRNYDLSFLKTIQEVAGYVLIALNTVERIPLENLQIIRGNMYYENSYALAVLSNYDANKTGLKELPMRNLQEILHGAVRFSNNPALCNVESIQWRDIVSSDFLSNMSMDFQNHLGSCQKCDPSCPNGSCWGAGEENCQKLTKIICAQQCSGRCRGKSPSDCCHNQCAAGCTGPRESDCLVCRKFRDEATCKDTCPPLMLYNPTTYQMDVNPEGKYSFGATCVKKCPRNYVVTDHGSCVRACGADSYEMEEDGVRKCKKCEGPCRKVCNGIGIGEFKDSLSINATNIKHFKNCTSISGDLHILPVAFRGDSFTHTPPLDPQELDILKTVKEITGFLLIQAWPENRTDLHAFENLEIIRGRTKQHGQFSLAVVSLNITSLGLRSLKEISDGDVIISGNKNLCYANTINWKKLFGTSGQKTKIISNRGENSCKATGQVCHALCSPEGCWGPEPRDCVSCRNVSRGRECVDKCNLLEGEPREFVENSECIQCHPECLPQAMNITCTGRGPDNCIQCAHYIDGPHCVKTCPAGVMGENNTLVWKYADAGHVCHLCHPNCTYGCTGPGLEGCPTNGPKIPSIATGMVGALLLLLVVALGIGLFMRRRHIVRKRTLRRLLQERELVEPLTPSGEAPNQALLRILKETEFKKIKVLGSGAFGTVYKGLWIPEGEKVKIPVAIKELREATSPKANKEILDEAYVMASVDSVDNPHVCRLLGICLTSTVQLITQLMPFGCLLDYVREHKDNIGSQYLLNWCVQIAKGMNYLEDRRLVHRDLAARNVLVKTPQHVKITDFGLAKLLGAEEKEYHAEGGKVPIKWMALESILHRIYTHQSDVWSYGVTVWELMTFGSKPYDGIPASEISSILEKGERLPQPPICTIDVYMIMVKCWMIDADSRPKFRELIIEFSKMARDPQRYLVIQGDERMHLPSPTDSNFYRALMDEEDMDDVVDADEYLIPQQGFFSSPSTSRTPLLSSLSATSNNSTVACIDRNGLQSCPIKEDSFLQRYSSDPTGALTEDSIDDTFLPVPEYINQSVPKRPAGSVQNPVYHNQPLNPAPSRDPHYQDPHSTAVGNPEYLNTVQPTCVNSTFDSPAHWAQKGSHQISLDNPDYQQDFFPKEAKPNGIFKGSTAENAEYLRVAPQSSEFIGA
Put plainly: Inhibitor activity on EGFR-dependent cell growth (CellTiter-Glo, 72 h), Ba/F3 EGFR exon 20 SVD Ins. As to conditions: read-out: BaF3 SVD IC50. An outline of the steps:
as §1

T4 sequence (P00533 with tags, fused parts or gaps INS770NPG): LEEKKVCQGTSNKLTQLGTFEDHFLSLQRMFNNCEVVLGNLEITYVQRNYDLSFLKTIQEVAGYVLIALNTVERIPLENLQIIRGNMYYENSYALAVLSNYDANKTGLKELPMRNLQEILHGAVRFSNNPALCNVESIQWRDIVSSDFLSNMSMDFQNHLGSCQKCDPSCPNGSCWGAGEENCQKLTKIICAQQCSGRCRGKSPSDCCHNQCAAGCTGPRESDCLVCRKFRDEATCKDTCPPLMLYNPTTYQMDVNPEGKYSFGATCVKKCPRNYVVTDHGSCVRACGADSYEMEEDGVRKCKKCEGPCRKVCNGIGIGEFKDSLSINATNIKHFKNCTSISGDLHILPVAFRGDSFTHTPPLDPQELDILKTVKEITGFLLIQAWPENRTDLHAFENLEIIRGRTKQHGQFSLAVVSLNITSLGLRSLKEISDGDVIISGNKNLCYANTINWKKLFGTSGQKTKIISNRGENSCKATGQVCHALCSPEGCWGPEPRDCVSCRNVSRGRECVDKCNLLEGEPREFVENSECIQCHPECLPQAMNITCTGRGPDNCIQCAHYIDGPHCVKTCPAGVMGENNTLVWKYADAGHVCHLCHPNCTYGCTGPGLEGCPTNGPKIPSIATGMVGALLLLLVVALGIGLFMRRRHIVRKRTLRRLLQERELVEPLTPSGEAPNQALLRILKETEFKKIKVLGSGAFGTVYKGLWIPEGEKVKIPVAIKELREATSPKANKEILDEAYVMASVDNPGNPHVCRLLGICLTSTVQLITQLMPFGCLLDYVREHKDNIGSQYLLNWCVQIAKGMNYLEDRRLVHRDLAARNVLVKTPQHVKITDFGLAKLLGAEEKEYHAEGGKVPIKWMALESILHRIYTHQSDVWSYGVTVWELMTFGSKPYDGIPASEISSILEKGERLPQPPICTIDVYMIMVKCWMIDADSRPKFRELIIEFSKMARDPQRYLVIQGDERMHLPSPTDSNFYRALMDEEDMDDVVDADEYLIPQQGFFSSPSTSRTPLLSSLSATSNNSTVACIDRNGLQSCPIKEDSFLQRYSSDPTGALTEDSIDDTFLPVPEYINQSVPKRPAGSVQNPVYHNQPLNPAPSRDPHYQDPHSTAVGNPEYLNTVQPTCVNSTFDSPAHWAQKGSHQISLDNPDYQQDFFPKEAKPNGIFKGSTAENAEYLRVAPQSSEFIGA
T1 sequence (P00533 with tags, fused parts or gaps INS769ASV): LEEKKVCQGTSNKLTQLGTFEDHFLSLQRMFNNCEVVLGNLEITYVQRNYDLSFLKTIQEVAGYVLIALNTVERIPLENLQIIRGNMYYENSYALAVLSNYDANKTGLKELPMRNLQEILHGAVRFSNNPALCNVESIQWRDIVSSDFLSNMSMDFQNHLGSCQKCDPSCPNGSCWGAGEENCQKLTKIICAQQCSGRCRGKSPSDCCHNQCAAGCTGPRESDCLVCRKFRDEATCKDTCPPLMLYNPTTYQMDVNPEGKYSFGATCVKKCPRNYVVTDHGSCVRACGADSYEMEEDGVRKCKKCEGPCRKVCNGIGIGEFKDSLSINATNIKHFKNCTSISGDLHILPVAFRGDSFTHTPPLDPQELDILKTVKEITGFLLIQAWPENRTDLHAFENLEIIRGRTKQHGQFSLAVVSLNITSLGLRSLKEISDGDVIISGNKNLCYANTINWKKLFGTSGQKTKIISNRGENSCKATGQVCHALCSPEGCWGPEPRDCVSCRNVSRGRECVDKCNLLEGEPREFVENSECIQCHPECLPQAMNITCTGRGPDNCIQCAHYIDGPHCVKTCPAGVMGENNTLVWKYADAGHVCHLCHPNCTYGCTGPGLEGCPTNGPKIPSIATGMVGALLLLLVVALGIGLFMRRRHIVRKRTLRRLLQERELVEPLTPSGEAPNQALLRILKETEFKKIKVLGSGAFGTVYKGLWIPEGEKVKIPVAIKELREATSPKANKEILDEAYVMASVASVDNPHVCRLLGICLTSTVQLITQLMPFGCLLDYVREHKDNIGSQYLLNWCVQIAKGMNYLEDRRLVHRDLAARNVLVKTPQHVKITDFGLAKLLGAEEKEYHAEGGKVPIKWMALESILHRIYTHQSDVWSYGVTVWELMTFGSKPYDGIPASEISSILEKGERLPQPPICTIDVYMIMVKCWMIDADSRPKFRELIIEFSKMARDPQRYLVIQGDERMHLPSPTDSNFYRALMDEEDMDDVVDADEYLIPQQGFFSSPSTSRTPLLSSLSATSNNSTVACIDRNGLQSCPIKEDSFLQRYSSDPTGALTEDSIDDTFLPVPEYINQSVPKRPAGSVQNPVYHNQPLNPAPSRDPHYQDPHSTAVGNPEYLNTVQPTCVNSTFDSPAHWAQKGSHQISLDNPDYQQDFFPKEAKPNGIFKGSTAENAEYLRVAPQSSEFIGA

On to `COc1c(Cl)cccc1Nc1c(-c2ccnc3ccc(OC4(C)CC4)nc23)[nH]c2c1C(=O)NCC2` [Compound 767, 3-[(3-chloro-2-methoxyphenyl)amino]-2-[6-(1-methylcyclopropoxy)-1,5-naphthyridin-4-yl]-1H,5H,6H,7H-pyrrolo[3,2-c]pyridin-4-one], for which the 50% inhibitory concentration (IC50) in assay [1], in assay [2], in assay [3], in assay [4] and in assay [5] was below 100 nM in each case.
As to `COc1c(Cl)cccc1Nc1c(-c2ccnc(Nc3ccn(C)n3)n2)[nH]c2c1C(=O)NCC2` [compound 509, 3-[(3-chloro-2-methoxyphenyl)amino]-2-{2-[(1-methylpyrazol-3-yl)amino]pyrimidin-4-yl}-1H,5H,6H,7H-pyrrolo[3,2-c]pyridin-4-one], the half-inhibitory concentration (IC50) in assay [1], in assay [2], in assay [3], in assay [4] and in assay [5] was below 100 nM throughout.
Consider `COc1c(Nc2c(-c3ccnc(N)n3)[nH]c3c2C(=O)NCC3)ccc(F)c1Cl` [compound 713, 2-(2-aminopyrimidin-4-yl)-3-[(3-chloro-4-fluoro-2-methoxyphenyl)amino]-1H,5H,6H,7H-pyrrolo[3,2-c]pyridin-4-one], for which the IC50 was 100 to 1000 nM in assay [1]; above 1000 nM in assay [2]; above 1000 nM in assay [3]; 100 to 1000 nM in assay [4]; 100 to 1000 nM in assay [5].
`COc1c(Cl)cccc1Nc1c(-c2ccnc(NC[C@@H]3CCO3)n2)[nH]c2c1C(=O)NCC2` [compound 719]: the IC50 is 100 to 1000 nM in assay [1]; above 1000 nM in assay [2]; above 1000 nM in assay [3]; 100 to 1000 nM in assay [4]; above 1000 nM in assay [5].
For `COc1c(Cl)cccc1Nc1c(-c2ccnc3ccc(OC4COC4)nc23)[nH]c2c1C(=O)NCC2` [compound 732, 3-[(3-chloro-2-methoxyphenyl)amino]-2-[6-(oxetan-3-yloxy)-1,5-naphthyridin-4-yl]-1H,5H,6H,7H-pyrrolo[3,2-c]pyridin-4-one], the IC50 in assay [1], in assay [2], in assay [3], in assay [4] and in assay [5] was below 100 nM throughout.
Regarding `COc1c(Cl)cccc1Nc1c(-c2ccnc3ccc(OC[C@H]4CCO4)nc23)[nH]c2c1C(=O)NCC2` [compound 734, 3-[(3-chloro-2-methoxyphenyl)amino]-2-[6-[(2R)-oxetan-2-ylmethoxy]-1,5-naphthyridin-4-yl]-1H,5H,6H,7H-pyrrolo[3,2-c]pyridin-4-one], the concentration for half-maximal inhibition (IC50) was below 100 nM in assay [1]; below 100 nM in assay [2]; 100 to 1000 nM in assay [3]; below 100 nM in assay [4]; below 100 nM in assay [5].
Take `COc1c(Cl)cccc1Nc1c(-c2ccnc3ccc(OC[C@@H]4CCO4)nc23)[nH]c2c1C(=O)NCC2` [compound 735, 3-[(3-chloro-2-methoxyphenyl)amino]-2-[6-[(2S)-oxetan-2-ylmethoxy]-1,5-naphthyridin-4-yl]-1H,5H,6H, 7H-pyrrolo[3,2-c]pyridin-4-one]: the half-maximal inhibitory concentration (IC50) is below 100 nM in assay [1]; below 100 nM in assay [2]; 100 to 1000 nM in assay [3]; below 100 nM in assay [4]; below 100 nM in assay [5].
Consider `COc1c(Cl)cccc1Nc1c(-c2ccnc3ccc(OCCN(C)C)nc23)[nH]c2c1C(=O)NCC2` [compound 736, 3-[(3-chloro-2-methoxyphenyl)amino]-2-[6-[2-(dimethylamino)ethoxy]-1,5-naphthyridin-4-yl]-1H,5H,6H,7H-pyrrolo[3,2-c] pyridin-4-one; formic acid], for which the 50% inhibitory concentration (IC50) was below 100 nM in assay [1]; 100 to 1000 nM in assay [2]; 100 to 1000 nM in assay [3]; 100 to 1000 nM in assay [4]; below 100 nM in assay [5].
For `COc1c(Cl)cccc1Nc1c(-c2ccnc3ccc(OCC4COC4)nc23)[nH]c2c1C(=O)NCC2` [compound 737, 3-[(3-chloro-2-methoxyphenyl)amino]-2-[6-(oxetan-3-ylmethoxy)-1,5-naphthyridin-4-yl]-1H,5H,6H,7H-pyrrolo[3,2-c] pyridin-4-one], the 50% inhibitory concentration (IC50) in assay [1] was below 100 nM; in assay [2] it was below 100 nM; in assay [3], 100 to 1000 nM; in assay [4], below 100 nM; in assay [5], below 100 nM.
As to `COc1c(Cl)cccc1Nc1c(-c2ccnc3ccc(OCC4CN(C)C4)nc23)[nH]c2c1C(=O)NCC2` [compound 738, 3-[(3-chloro-2-methoxyphenyl)amino]-2-[6-[(1-methylazetidin-3-yl)methoxy]-1,5-naphthyridin-4-yl]-1H,5H,6H,7H-pyrrolo[3,2-c]pyridin-4-one], the IC50 in assay [1] was below 100 nM; in assay [2], 100 to 1000 nM; in assay [3] it was 100 to 1000 nM; in assay [4], below 100 nM; in assay [5] it was below 100 nM.
As to `COc1c(Cl)cccc1Nc1c(-c2ccnc3ccc(O[C@H]4CCOC4)nc23)[nH]c2c1C(=O)NCC2` [compound 739, 3-[(3-chloro-2-methoxyphenyl)amino]-2-[6-[(3S)-oxolan-3-yloxy]-1,5-naphthyridin-4-yl]-1H,5H,6H,7H-pyrrolo[3,2-c]pyridin-4-one], the IC50 in assay [1] was below 100 nM; in assay [2], 100 to 1000 nM; in assay [3], 100 to 1000 nM; in assay [4], below 100 nM; in assay [5], below 100 nM.
Regarding `COc1c(Cl)cccc1Nc1c(-c2ccnc3ccc(O[C@H]4CCCOC4)nc23)[nH]c2c1C(=O)NCC2` [compound 741, 3-[(3-chloro-2-methoxyphenyl)amino]-2-[6-[(3S)-oxan-3-yloxy]-1,5-naphthyridin-4-yl]-1H,5H,6H,7H-pyrrolo[3,2-c]pyridin-4-one; formic acid], the half-inhibitory concentration (IC50) in assay [1], in assay [2], in assay [3], in assay [4] and in assay [5] was below 100 nM throughout.
In the case of `COc1c(Cl)cccc1Nc1c(-c2ccnc3ccc(O[C@@H]4CCCOC4)nc23)[nH]c2c1C(=O)NCC2` [compound 742, 3-[(3-chloro-2-methoxyphenyl)amino]-2-[6-[(3R)-oxan-3-yloxy]-1,5-naphthyridin-4-yl]-1H,5H,6H,7H-pyrrolo[3,2-c]pyridin-4-one; formic acid], the 50% inhibitory concentration (IC50) is below 100 nM in assay [1]; below 100 nM in assay [2]; 100 to 1000 nM in assay [3]; below 100 nM in assay [4]; below 100 nM in assay [5].
For the molecule `COc1c(Cl)cccc1Nc1c(-c2ccnc3ccc(O[C@@H]4CCOC4)nc23)[nH]c2c1C(=O)NCC2` [compound 743, 3-[(3-chloro-2-methoxyphenyl)amino]-2-[6-[(3R)-oxolan-3-yloxy]-1,5-naphthyridin-4-yl]-1H,5H,6H,7H-pyrrolo[3,2-c]pyridin-4-one], the half-maximal inhibitory concentration (IC50) in assay [1] was below 100 nM; in assay [2] it was below 100 nM; in assay [3], 100 to 1000 nM; in assay [4], below 100 nM; in assay [5], below 100 nM.
Take `CCO[C@H](C)c1ccc2nccc(-c3[nH]c4c(c3Nc3cccc(Cl)c3OC)C(=O)NCC4)c2n1` [compound 753, 3-[(3-chloro-2-methoxyphenyl)amino]-2-[6-[(1R)-1-ethoxyethyl]-1,5-naphthyridin-4-yl]-1H,5H,6H,7H-pyrrolo[3,2-c]pyridin-4-one; trifluoroacetic acid]: the IC50 in assay [1], in assay [2], in assay [3], in assay [4] and in assay [5] was below 100 nM each time.
Turning to `COc1c(Cl)cccc1Nc1c(-c2ccnc3ccc(OCC4(C(F)(F)F)CC4)nc23)[nH]c2c1C(=O)NCC2` [compound 758, 3-[(3-chloro-2-methoxyphenyl)amino]-2-(6-[[1-(trifluoromethyl)cyclopropyl]methoxy]-1,5-naphthyridin-4-yl)-1H,5H,6H,7H-pyrrolo[3,2-c]pyridin-4-one], the IC50 in assay [1], in assay [2], in assay [3], in assay [4] and in assay [5] was 100 to 1000 nM each time.
As for `CCOc1ccc2nccc(-c3[nH]c4c(c3Nc3cccc(Cl)c3OC)C(=O)NCC4)c2n1` [compound 761, 3-[(3-chloro-2-methoxyphenyl)amino]-2-(6-ethoxy-1,5-naphthyridin-4-yl)-1H,5H,6H,7H-pyrrolo[3,2-c]pyridin-4-one], the IC50 in assay [1], in assay [2], in assay [3], in assay [4] and in assay [5] was below 100 nM throughout.
